# Measured values from ChEMBL document CHEMBL5214900, “Design, Synthesis, and Biological Evaluation of Membrane-Active Bakuchiol Derivatives as Effective Broad-Spectrum Antibacterial Agents” (J Med Chem, 2021).
# Active and inactive are the calls of the source. The calls are words filed in the database; no cut-off is given here.
# How the values were obtained:
# Staphylococcus aureus [1] = test: Antibacterial activity against Staphylococcus aureus NCTC10442 assessed as fold increase in MIC incubated for 24 hrs in presence of 1 mM Mg2+ by CLSI based broth dilution method; type: functional
# Staphylococcus aureus [2] = test: Bactericidal activity against Staphylococcus aureus ATCC 29213 assessed as bacterial killing at 8 times MIC measured after 8 hrs by time-killing assay relative to control; type: functional
# Pseudomonas aeruginosa [3] = test: Antibacterial activity against Pseudomonas aeruginosa ATCC 9027 assessed as inhibition of bacterial growth incubated for 24 hrs by CLSI based broth dilution method; type: functional
# Escherichia coli [4] = test: Antibiofilm activity against Escherichia coli ATCC 25922 assessed reduction in biofilm formation at […] ug/ml measured after 24 hrs by crystal violet staining based assay relative to control; type: functional; parameters: scale not given: the % may be the effect or the level left; settings: dose […] microg/ml, 1.56 ug/mL
# Cell membrane [5] = test: Disruption of membrane integrity in Staphylococcus aureus ATCC 29213 assessed as increase in red fluorescence intensity at 8 times MIC incubated for 2 hrs by SYTO 9/PI staining based fluorescence analysis; type: subcellular
# [6] = Toxicity in C57BL/6 mouse assessed as signs of toxicity in cornea at 0.8 mg/ml, TOP administered 4 times a day for 3 consecutive days; settings: in vivo, topical_or_ocular, 72 h, time 3 day
# Staphylococcus aureus [7] = test: Bactericidal activity against Staphylococcus aureus ATCC 29213 assessed as bacterial killing at 8 times MIC measured after 24 hrs by time-killing assay relative to control; type: functional
# [8] = Toxicity in C57BL/6 mouse assessed as corneal damage at 0.8 mg/ml, TOP administered 4 times a day for 3 consecutive days; settings: in vivo, topical_or_ocular, 72 h, time 3 day
# Acinetobacter baumannii [9] = test: Antibacterial activity against Acinetobacter baumannii ATCC 17978 assessed as fold increase in MIC incubated for 24 hrs in presence of 1 mM Mg2+ by CLSI based broth dilution method; type: functional
# Escherichia coli [10] = test: Antibacterial activity against Escherichia coli ATCC 25922 assessed as inhibition of bacterial growth incubated for 24 hrs by CLSI based broth dilution method; type: functional
# Escherichia coli [11] = test: Antibacterial activity against Escherichia coli ATCC 25922 assessed as fold increase in MIC incubated for 24 hrs in presence of 140 mM Na+ by CLSI based broth dilution method; type: functional
# Escherichia coli [12] = test: Antibacterial activity against Escherichia coli ATCC 25922 assessed as fold increase in MIC incubated for 24 hrs in presence of 1 mM Mg2+ by CLSI based broth dilution method; type: functional
# [13] = Cytotoxicity against HEK293 cells assessed as cell viability at 25 ug/ml incubated for 24 hrs by CCK-8 assay relative to control; type: toxicity, cell-based; settings: human, at 25 µg/mL, read-out: Activity
# Staphylococcus aureus [14] = test: Antibacterial activity against Staphylococcus aureus ATCC 29213 assessed as inhibition of bacterial growth incubated for 24 hrs by CLSI based broth dilution method; type: functional
# [15] = Cytotoxicity against HEK293 cells assessed as cell viability at 6.25 ug/ml incubated for 24 hrs by CCK-8 assay relative to control; type: toxicity, cell-based; settings: human, at 6.25 µg/mL, read-out: Activity
# Lipoteichoic acid [16] = test: Displacement of BODIPY-TR-cadaverine from Bacillus subtilis Lipoteichoic acid at 4 times MIC measured for 30 mins by fluorescence based microplate reader assay relative to control
# Staphylococcus aureus [17] = test: Antibacterial activity against Staphylococcus aureus ATCC 29213 in C57BL/6 mouse model of bacterial keratitis assessed as log reduction in number of viable bacterial colonies in infected cornea at 0.8 mg/ml, TOP administered 4 times a day for 3 consecutive days; type: functional; settings: time 3 day
# Cell membrane [18] = test: Disruption of membrane integrity in Pseudomonas aeruginosa ATCC 9027 assessed as increase in red fluorescence intensity at 8 times MIC incubated for 2 hrs by SYTO 9/PI staining based fluorescence analysis; type: subcellular
# Staphylococcus aureus [19] = test: Antibiofilm activity against Staphylococcus aureus ATCC 29213 assessed reduction in biofilm formation at […] ug/ml measured after 24 hrs by crystal violet staining based assay relative to control; type: functional; parameters: scale not given: the % may be the effect or the level left; settings: dose […] microg/ml, 1.56 ug/mL
# Acinetobacter baumannii [20] = test: Antibacterial activity against Acinetobacter baumannii ATCC 17978 assessed as inhibition of bacterial growth incubated for 24 hrs by CLSI based broth dilution method; type: functional
# Cell membrane [21] = test: Disruption of membrane integrity in Staphylococcus aureus ATCC 29213 assessed as increase in fluorescence intensity at 1 to 8 times MIC by SYTOX green dye based fluorescence analysis; settings: DDE = dose-dependent effect
# Staphylococcus aureus [22] = test: Antibacterial activity against Staphylococcus aureus ATCC 29213 assessed as eradication of preformed bacterial biofilm by measuring residual biofilm viability at 6.25 ug/ml incubated for 24 hrs by crystal violet staining based assay relative to control; type: functional; settings: dose 6.25 µg/ml
# [23] = Cytotoxicity against mouse NCTC clone 929 cells assessed as cell viability at 12.5 ug/ml incubated for 24 hrs by CCK-8 assay relative to control; type: toxicity, cell-based; settings: at 12.5 µg/mL, read-out: Activity
# Lipopolysaccharide (LPS) = test: Displacement of BODIPY-TR-cadaverine from Escherichia coli Lipopolysaccharide at 2 times MIC measured for 30 mins by fluorescence based microplate reader assay relative to control
# Lipoteichoic acid [24] = test: Displacement of BODIPY-TR-cadaverine from Bacillus subtilis Lipoteichoic acid at 2 times MIC measured for 30 mins by fluorescence based microplate reader assay relative to control
# Escherichia coli [25] = test: Antibacterial activity against Escherichia coli ATCC 25922 assessed as eradication of preformed bacterial biofilm by measuring residual biofilm viability at 25 ug/ml incubated for 24 hrs by crystal violet staining based assay relative to control; type: functional; settings: dose 25 µg/ml
# Acinetobacter baumannii [26] = test: Antibacterial activity against Acinetobacter baumannii R2889 assessed as inhibition of bacterial growth incubated for 24 hrs by CLSI based broth dilution method; type: functional
# [27] = Cytotoxicity against mouse NCTC clone 929 cells assessed as cell viability at 3.125 ug/ml incubated for 24 hrs by CCK-8 assay relative to control; type: toxicity, cell-based; settings: at 3.125 µg/mL, read-out: Activity
# Acinetobacter baumannii [28] = test: Antibacterial activity against Acinetobacter baumannii ATCC 17978 assessed as fold increase in MIC incubated for 24 hrs in presence of 140 mM Na+ by CLSI based broth dilution method; type: functional
# Pseudomonas aeruginosa [29] = test: Induction of cell death in Pseudomonas aeruginosa ATCC 9027 assessed as residual living cells at 8 times MIC incubated for 2 hrs by SYTO 9/PI staining based fluorescence analysis relative to control; type: functional
# Acinetobacter baumannii [30] = test: Antibacterial activity against Acinetobacter baumannii ATCC 17978 assessed as fold increase in MIC incubated for 24 hrs in presence of 2.5 mM Ca2+ by CLSI based broth dilution method; type: functional
# Staphylococcus aureus [31] = test: Antibacterial activity against methicillin-resistant Staphylococcus aureus NCTC10442 assessed as inhibition of bacterial growth incubated for 24 hrs by CLSI based broth dilution method; type: functional
# [32] = Cytotoxicity against mouse NCTC clone 929 cells assessed as cell viability at 50 ug/ml incubated for 24 hrs by CCK-8 assay relative to control; type: toxicity, cell-based; settings: at 50 µg/mL, read-out: Activity
# Cell membrane [33] = test: Induction of outer membrane permeabilization in Escherichia coli ATCC 25922 assessed as increase in fluorescence intensity at 1 to 8 times MIC measured for 60 mins by NPN uptake assay; type: subcellular; settings: DDE = dose-dependent effect
structure (smiles),measurement,setting,value
C=C[C@@](C)(/C=C/c1ccc(OCCCCN(CCCN(C)C)CCCN(C)C)cc1)CCC=C(C)C,fold change (FC),Staphylococcus aureus [1],<2
same,Activity,Staphylococcus aureus [2],>=99.9%
same,MIC,Pseudomonas aeruginosa [3],3.12 µg/mL
same,Activity,Escherichia coli [4],38.45%
same,Activity,Cell membrane [5],Active
same,Activity,[6],Non-Toxic
same,Activity,Staphylococcus aureus [7],100%
same,Activity,[8],Non-Toxic
same,fold change (FC),Acinetobacter baumannii [9],<2
same,MIC,Escherichia coli [10],3.12 µg/mL
same,fold change (FC),Escherichia coli [11],<2
same,fold change (FC),Escherichia coli [12],<2
same,"viability at 24 h, 25 ug/ml",[13],63.3%
same,MIC,Staphylococcus aureus [14],3.12 µg/mL
same,"viability at 24 h, 6.25 ug/ml",[15],93.8%
same,Activity,Lipoteichoic acid [16],37.2%
same,log(activity),Staphylococcus aureus [17],5.7
same,Activity,Cell membrane [18],Active
same,Activity,Staphylococcus aureus [19],42.21%
same,MIC,Acinetobacter baumannii [20],3.12 µg/mL
same,Activity,Cell membrane [21],Dde
same,Activity,Staphylococcus aureus [22],34.11%
same,"viability at 24 h, 12.5 ug/ml",[23],84.5%
same,Activity,Lipopolysaccharide (LPS),53.3%
same,Activity,Lipoteichoic acid [24],35.3%
same,Activity,Escherichia coli [25],2.38%
same,MIC,Acinetobacter baumannii [26],3.12 µg/mL
same,"viability at 24 h, 3.125 ug/ml",[27],88.9%
same,fold change (FC),Acinetobacter baumannii [28],<2
same,Activity,Pseudomonas aeruginosa [29],0.3%
same,fold change (FC),Acinetobacter baumannii [30],<2
same,MIC,Staphylococcus aureus [31],1.56 µg/mL
same,"viability at 24 h, 50 ug/ml",[32],36%
same,Activity,Cell membrane [33],Dde
